The record followed here is paper PMC8111447 (Frontiers in Pharmacology, 2021).

The term inhibition denotes the relative decrease from the control value, in per cent. The low end stands for a response near the control, the high end for a response far below the control. The IC50 is the point on the concentration scale where inhibition reaches its midpoint.

Common to all, as to experiment: Kinase panel (Eurofins)
Type in all cases: biochemical
Holding throughout (conditions): n = 2; for inhibition at 1 µM: at 1 μmol/L; for IC50: read-out: IC50 kinase inhibition

For one assay, the target named is T1, IGF-1R(h), activated (Homo sapiens, UniProt P08069).
T1 construct: purchased Eurofins
An excerpt: (§1) These receptors have a methionine gatekeeper in their kinase domains, and are related to hyperglycemia in other clinical trials of EGFR TKI, such as Co-1686.

The target of the next assay is T2, Tec(h) activated (Homo sapiens, UniProt P42680).
T2 construct: purchased Eurofins
T2 sequence (P42680 1-631): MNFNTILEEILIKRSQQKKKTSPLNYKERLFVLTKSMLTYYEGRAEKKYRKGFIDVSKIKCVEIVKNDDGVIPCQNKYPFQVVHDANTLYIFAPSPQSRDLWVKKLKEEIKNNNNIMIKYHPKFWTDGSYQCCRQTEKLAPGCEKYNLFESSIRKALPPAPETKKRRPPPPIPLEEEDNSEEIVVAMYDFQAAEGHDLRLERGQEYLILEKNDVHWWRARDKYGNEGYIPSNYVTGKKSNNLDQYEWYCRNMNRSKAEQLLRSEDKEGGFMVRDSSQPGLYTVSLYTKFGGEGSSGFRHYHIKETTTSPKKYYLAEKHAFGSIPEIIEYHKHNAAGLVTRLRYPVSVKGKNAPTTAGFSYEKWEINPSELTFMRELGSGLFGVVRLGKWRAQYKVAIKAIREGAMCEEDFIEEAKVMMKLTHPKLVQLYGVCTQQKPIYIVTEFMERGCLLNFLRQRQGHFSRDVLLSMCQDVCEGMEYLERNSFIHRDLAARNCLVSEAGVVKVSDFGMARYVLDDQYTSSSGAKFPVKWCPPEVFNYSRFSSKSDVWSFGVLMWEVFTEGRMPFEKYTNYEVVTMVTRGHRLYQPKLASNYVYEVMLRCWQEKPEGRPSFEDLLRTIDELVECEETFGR
Source text: as §1

The target in another assay is T3, HIPK4(h) (Homo sapiens, UniProt Q8NE63).
T3 construct: purchased Eurofins
T3 sequence (Q8NE63 1-616): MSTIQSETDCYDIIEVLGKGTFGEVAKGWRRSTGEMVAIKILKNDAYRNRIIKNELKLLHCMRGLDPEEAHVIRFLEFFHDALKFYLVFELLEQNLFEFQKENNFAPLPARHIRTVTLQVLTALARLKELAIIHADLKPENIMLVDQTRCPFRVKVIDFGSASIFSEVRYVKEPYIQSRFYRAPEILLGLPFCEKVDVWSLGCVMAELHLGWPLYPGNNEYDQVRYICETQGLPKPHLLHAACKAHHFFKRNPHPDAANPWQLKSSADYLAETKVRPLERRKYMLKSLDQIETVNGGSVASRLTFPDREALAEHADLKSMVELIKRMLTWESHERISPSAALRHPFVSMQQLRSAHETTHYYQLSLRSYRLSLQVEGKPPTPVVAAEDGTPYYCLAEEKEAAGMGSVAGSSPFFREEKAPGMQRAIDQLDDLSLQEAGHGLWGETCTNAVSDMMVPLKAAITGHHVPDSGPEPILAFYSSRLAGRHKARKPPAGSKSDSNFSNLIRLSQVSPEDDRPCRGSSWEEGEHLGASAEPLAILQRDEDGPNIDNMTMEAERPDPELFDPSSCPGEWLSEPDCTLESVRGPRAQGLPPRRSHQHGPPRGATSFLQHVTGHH
Source text: as §1

For a further assay, the target named is T4, IGF-1R(h) (Homo sapiens, UniProt P08069).
T4 construct: purchased Eurofins
Source text: as §1

Another assay has as its target T5, MLCK(h) (Homo sapiens, UniProt Q9H1R3).
T5 construct: purchased Eurofins
Source text: as §1

A further assay deals with T6, Pyk2(h) (Homo sapiens, UniProt Q14289).
T6 construct: purchased Eurofins
Source text: as §1

A further assay has as its target T7, MYO3B(h) (Homo sapiens, UniProt Q8WXR4).
T7 construct: purchased Eurofins
T7 sequence (Q8WXR4 1-1341): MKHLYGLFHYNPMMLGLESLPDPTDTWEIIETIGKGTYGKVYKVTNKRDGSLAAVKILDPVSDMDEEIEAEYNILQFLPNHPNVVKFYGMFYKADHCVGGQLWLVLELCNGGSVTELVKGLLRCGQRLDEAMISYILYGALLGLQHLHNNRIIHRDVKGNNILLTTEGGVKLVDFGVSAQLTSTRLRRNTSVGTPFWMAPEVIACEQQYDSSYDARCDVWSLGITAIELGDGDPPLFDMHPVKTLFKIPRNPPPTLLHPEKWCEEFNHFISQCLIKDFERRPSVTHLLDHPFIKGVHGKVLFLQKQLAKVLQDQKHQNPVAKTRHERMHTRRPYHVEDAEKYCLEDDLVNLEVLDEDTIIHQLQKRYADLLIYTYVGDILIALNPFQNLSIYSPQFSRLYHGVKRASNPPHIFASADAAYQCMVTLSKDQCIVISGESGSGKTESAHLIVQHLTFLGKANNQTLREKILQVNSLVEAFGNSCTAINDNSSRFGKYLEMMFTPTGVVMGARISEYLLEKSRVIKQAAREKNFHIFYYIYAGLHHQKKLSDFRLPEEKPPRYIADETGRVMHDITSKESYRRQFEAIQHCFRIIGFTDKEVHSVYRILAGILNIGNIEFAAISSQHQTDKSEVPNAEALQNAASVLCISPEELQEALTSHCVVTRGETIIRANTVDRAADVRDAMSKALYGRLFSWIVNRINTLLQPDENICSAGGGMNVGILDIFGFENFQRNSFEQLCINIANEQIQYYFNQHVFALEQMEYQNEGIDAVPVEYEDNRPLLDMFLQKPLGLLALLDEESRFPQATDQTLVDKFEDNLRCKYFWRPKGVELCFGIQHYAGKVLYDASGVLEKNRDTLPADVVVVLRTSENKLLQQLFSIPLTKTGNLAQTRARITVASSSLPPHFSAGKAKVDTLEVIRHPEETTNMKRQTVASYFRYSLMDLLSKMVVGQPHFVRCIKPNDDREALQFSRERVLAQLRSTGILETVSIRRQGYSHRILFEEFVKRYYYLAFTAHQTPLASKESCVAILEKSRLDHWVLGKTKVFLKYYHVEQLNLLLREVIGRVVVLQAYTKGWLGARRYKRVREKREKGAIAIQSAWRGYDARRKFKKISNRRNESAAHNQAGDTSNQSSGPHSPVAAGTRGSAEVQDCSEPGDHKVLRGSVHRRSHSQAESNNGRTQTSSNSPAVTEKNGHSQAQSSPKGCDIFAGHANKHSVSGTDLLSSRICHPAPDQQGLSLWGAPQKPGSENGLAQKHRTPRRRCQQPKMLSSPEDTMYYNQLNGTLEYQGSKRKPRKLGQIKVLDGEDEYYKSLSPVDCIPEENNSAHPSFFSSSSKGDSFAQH
Source text: as §1

T1 sequence (P08069 31-1367): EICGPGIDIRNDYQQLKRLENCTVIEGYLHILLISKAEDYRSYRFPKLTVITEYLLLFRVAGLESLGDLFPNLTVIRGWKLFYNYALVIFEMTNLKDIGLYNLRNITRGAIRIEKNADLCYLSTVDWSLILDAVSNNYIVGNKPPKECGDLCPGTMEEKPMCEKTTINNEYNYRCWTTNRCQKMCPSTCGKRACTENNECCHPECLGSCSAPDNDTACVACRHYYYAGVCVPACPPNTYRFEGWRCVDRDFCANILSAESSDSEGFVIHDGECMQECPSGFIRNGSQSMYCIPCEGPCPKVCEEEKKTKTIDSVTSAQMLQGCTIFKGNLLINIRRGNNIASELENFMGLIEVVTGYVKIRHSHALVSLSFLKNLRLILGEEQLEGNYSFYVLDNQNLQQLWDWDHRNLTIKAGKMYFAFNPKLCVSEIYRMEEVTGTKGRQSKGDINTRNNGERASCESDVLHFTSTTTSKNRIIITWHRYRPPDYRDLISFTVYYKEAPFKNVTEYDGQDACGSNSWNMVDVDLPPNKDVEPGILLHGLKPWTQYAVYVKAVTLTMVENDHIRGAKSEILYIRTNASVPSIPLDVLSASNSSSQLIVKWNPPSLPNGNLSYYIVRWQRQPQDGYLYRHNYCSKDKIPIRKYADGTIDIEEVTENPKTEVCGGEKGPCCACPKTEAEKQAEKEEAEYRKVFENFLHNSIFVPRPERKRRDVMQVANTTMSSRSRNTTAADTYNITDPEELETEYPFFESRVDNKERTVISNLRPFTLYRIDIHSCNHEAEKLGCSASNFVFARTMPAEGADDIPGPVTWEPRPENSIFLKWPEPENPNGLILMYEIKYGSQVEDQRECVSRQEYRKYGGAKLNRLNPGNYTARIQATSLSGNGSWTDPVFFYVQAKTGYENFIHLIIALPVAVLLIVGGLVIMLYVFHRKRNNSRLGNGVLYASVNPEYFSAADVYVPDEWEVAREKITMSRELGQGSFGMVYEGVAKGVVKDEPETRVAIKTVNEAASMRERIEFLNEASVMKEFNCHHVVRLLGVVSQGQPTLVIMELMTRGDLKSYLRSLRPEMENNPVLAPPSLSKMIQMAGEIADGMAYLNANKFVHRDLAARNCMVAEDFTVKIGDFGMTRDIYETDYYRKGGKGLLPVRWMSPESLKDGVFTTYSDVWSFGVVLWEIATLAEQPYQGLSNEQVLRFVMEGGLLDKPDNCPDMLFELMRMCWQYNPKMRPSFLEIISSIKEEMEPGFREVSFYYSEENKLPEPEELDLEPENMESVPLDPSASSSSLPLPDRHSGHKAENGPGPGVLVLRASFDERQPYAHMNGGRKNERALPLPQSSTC
T4 sequence (P08069 31-1367): as above
T6 sequence (Q14289 whole entry): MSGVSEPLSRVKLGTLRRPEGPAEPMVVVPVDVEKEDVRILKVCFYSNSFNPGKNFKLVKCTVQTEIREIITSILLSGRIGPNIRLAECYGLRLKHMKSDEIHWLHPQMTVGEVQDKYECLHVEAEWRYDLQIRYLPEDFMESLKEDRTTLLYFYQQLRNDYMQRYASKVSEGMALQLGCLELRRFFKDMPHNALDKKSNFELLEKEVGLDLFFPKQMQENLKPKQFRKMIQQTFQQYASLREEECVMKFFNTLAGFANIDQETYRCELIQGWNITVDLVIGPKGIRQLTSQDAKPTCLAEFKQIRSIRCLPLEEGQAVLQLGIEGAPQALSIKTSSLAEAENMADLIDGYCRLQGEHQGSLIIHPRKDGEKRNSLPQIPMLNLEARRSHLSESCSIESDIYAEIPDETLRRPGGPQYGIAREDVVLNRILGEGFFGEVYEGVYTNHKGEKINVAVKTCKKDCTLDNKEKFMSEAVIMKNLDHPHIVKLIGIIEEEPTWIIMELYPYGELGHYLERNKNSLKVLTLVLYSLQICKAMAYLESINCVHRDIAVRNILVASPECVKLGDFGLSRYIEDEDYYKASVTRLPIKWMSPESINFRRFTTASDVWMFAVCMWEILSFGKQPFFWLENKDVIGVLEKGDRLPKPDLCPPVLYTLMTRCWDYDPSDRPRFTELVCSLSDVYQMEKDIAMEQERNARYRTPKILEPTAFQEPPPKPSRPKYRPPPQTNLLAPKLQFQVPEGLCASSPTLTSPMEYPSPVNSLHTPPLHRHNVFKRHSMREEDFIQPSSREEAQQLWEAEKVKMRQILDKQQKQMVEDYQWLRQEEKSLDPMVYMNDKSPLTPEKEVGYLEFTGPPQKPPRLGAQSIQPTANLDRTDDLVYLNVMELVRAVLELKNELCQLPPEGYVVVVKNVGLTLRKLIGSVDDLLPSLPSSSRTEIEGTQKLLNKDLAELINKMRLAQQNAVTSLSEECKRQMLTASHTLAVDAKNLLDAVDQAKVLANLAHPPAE

As to `C=CC(=O)Nc1cc(Nc2nccc(-c3c4n(c5ccccc35)CCCC4)n2)c(OC)cc1N(C)CCNC` [Imp3], the inhibition at 1 µM against IGF-1R(h), activated was determined as 64%; against Tec(h) activated, 77%; at HIPK4(h), 82%; at IGF-1R(h), 70%; against MLCK(h), 68%; on Pyk2(h), 83%. On MYO3B(h), this compound displayed an inhibition at 1 µM of 67%. In addition, the IC50 at IGF-1R(h), activated stood at 0.709 µM; at Tec(h) activated it was 0.272 µM; at HIPK4(h), 0.276 µM; at IGF-1R(h) it was 0.812 µM; on MLCK(h), 0.597 µM; on Pyk2(h), 0.227 µM. In addition, on MYO3B(h), the concentration for half-maximal inhibition (IC50) worked out at 0.506 µM.

For `C=CC(=O)Nc1cc(Nc2nccc(-c3c4n(c5ccccc35)CCCC4)n2)c(OC)cc1N(C)CCN(C)C` [SH-1028], the inhibition at 1 µM against IGF-1R(h), activated is 46%; against Tec(h) activated it was 80%; against HIPK4(h), 67%; at IGF-1R(h), 38%; at MLCK(h), 55%; against Pyk2(h), 73%. This compound also gave an inhibition at 1 µM against MYO3B(h) of 58%. Besides, the IC50 worked out at 0.499 µM on IGF-1R(h), activated; 0.15 µM on Tec(h) activated; 0.232 µM on HIPK4(h); 0.574 µM on IGF-1R(h); 0.4 µM on MLCK(h); 0.228 µM on Pyk2(h). Moreover, at MYO3B(h), the 50% inhibitory concentration (IC50) was found to be 0.349 µM.
